# Assay results reported in patent US12606541B2, “PPARg modulators and methods of use” (Eisai R&D Management Co., Ltd., priority 2020, dated 2026).
# Legend:
# His6-TEV-PPARγ-(234-505) = molecular target: T1, His6-TEV-PPARγ-(234-505) (Homo sapiens, UniProt P37231); test: TR-FRET Assay to Measure Co-R Peptide Recruitment to PPARγ; format: biochemical; settings: Co-R peptide (SMRT-ID2) recruitment; top final concentration 20 μM; read-out: TR-FRET i-Ag; AC50
# T1 construct: The His6-TEV-PPARγ-(234-505) protein for assay was expressed and purified; TEV cleavage site (N); made in house
# T1 sequence (P37231 234-505): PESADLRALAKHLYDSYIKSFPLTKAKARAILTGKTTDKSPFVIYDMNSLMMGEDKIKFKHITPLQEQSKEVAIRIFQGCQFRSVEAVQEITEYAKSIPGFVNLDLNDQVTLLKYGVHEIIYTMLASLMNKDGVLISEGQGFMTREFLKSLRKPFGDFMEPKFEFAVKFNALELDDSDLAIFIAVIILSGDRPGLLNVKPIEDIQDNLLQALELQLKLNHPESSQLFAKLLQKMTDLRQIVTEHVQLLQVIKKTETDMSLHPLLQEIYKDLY
# Outline: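 Corepressor recruitment is measured by adding terbium-labeled anti-His antibody and FITC SMRT-ID2 peptide, at 5 and 200 nM final, after a 20-minute room-temperature protein–compound incubation. After one further hour, signal is converted to percent response between DMSO and 500 nM T0070907 wells.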
# UM-UC-9 engineered cells = test: Cell proliferation / short-term viability assay, CellTiter-Glo 144 h; format: cell-based, human; settings: Homo sapiens, UM-UC-9, 144 h, read-out: CTGlo 144 h UMUC9.5, G150
# Outline: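 Viability read by CellTiter-Glo 2.0 luminescence at day 7 versus DMSO-vehicle wells and a T0 plate measured on day 0. Cells: UM-UC-9 engineered assay-ready stocks, 500 cells/well in high-glucose DMEM with 10% FBS, 37° C, 5% CO2.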
smiles,measurement,setting,value
"COc1cc(-c2cc(C(=O)N3CCC(C(=O)NCc4cn(C)c5ccccc45)CC3)n[nH]2)c(Cl)cn1 [Example 187, 1-(5-(5-chloro-2-methoxypyridin-4-yl)-1H-pyrazole-3-carbonyl)-N-((1-methyl-1H-indol-3-yl)methyl)piperidine-4-carboxamide]",AC50,His6-TEV-PPARγ-(234-505),0.0417 µM
same,IC50,UM-UC-9 engineered cells,0.115 µM
"COc1cc(-c2cc(C(=O)N3CCC(C(=O)NCc4ccc5cc[nH]c5c4)CC3)n[nH]2)c(Cl)cn1 [Example 188, N-((1H-indol-6-yl)methyl)-1-(5-(5-chloro-2-methoxypyridin-4-yl)-1H-pyrazole-3-carbonyl)piperidine-4-carboxamide]",AC50,His6-TEV-PPARγ-(234-505),0.0798 µM
same,IC50,UM-UC-9 engineered cells,0.211 µM
"COc1cc(-c2cc(C(=O)N3CCC(C(=O)NCc4ccc(C)o4)CC3)n[nH]2)c(Cl)cn1 [Example 189, 1-(5-(5-chloro-2-methoxypyridin-4-yl)-1H-pyrazole-3-carbonyl)-N-((5-methylfuran-2-yl)methyl)piperidine-4-carboxamide]",AC50,His6-TEV-PPARγ-(234-505),0.119 µM
same,IC50,UM-UC-9 engineered cells,0.521 µM
"COc1cc(-c2cc(C(=O)N3CCC(C(=O)NCc4cccc5[nH]ccc45)CC3)n[nH]2)c(Cl)cn1 [Example 190, N-((1H-indol-4-yl)methyl)-1-(5-(5-chloro-2-methoxypyridin-4-yl)-1H-pyrazole-3-carbonyl)piperidine-4-carboxamide]",AC50,His6-TEV-PPARγ-(234-505),0.024 µM
same,IC50,UM-UC-9 engineered cells,0.0918 µM
"COc1cc(-c2cc(C(=O)N3CCC(C(=O)NCc4cccc5[nH]ncc45)CC3)n[nH]2)c(Cl)cn1 [Example 192, N-((1H-indazol-4-yl)methyl)-1-(5-(5-chloro-2-methoxypyridin-4-yl)-1H-pyrazole-3-carbonyl)piperidine-4-carboxamide]",AC50,His6-TEV-PPARγ-(234-505),0.0833 µM
same,IC50,UM-UC-9 engineered cells,0.375 µM
"COc1cc(-c2cc(C(=O)N3CCC(C(=O)NCc4ncc(C(F)(F)F)cc4Cl)CC3)n[nH]2)c(Cl)cn1 [Example 193, 1-(5-(5-chloro-2-methoxypyridin-4-yl)-1H-pyrazole-3-carbonyl)-N-((3-chloro-5-(trifluoromethyl)pyridin-2-yl)methyl)piperidine-4-carboxamide]",AC50,His6-TEV-PPARγ-(234-505),0.394 µM
same,IC50,UM-UC-9 engineered cells,1.2 µM
"COc1cc(-c2cc(C(=O)N3CCC(C(=O)NCc4cccc5cc[nH]c45)CC3)n[nH]2)c(Cl)cn1 [Example 194, N-((1H-indol-7-yl)methyl)-1-(5-(5-chloro-2-methoxypyridin-4-yl)-1H-pyrazole-3-carbonyl)piperidine-4-carboxamide]",AC50,His6-TEV-PPARγ-(234-505),0.808 µM
same,IC50,UM-UC-9 engineered cells,0.484 µM
"COc1cc(-c2cc(C(=O)N3CCC(C(=O)NC4CCN(c5ccccc5)CC4)CC3)n[nH]2)c(Cl)cn1 [Example 196, 1-(5-(5-chloro-2-methoxypyridin-4-yl)-1H-pyrazole-3-carbonyl)-N-(1-phenylpiperidin-4-yl)piperidine-4-carboxamide]",AC50,His6-TEV-PPARγ-(234-505),0.61 µM
same,IC50,UM-UC-9 engineered cells,1.03 µM
"COc1cc(-c2cc(C(=O)N3CCC(C(=O)NCc4ccc5n[nH]nc5c4)CC3)n[nH]2)c(Cl)cn1 [Example 197, N-((2H-benzo[d][1,2,3]triazol-5-yl)methyl)-1-(5-(5-chloro-2-methoxypyridin-4-yl)-1H-pyrazole-3-carbonyl)piperidine-4-carboxamide]",AC50,His6-TEV-PPARγ-(234-505),0.197 µM
same,IC50,UM-UC-9 engineered cells,3.93 µM
"COc1cc(-c2cc(C(=O)N3CCC(C(=O)N[C@H]4CC[C@](C)(O)CC4)CC3)n[nH]2)c(Cl)cn1 [Example 198, 1-(5-(5-chloro-2-methoxypyridin-4-yl)-1H-pyrazole-3-carbonyl)-N-((1r,4r)-4-hydroxy-4-methylcyclohexyl)piperidine-4-carboxamide]",AC50,His6-TEV-PPARγ-(234-505),0.917 µM
same,IC50,UM-UC-9 engineered cells,4.16 µM
"COc1cc(-c2cc(C(=O)N3CCC(C(=O)N[C@H]4CC[C@@](O)(C(F)(F)F)CC4)CC3)n[nH]2)c(Cl)cn1 [Example 199, 1-(5-(5-chloro-2-methoxypyridin-4-yl)-1H-pyrazole-3-carbonyl)-N-((1r,4r)-4-hydroxy-4-(trifluoromethyl)cyclohexyl)piperidine-4-carboxamide]",AC50,His6-TEV-PPARγ-(234-505),0.032 µM
same,IC50,UM-UC-9 engineered cells,0.14 µM
"COc1cc(-c2cc(C(=O)N3CCC(C(=O)NCc4ccc5[nH]nc(F)c5c4)CC3)n[nH]2)c(F)cn1 [Example 200, N-((3-fluoro-1H-indazol-5-yl)methyl)-1-(5-(5-fluoro-2-methoxypyridin-4-yl)-1H-pyrazole-3-carbonyl)piperidine-4-carboxamide]",AC50,His6-TEV-PPARγ-(234-505),0.112 µM
same,IC50,UM-UC-9 engineered cells,0.0715 µM
"COc1cc(-c2cc(C(=O)N3CCC(C(=O)NCc4n[nH]c5ccccc45)CC3)n[nH]2)c(Cl)cn1 [Example 201, N-((1H-indazol-3-yl)methyl)-1-(5-(5-chloro-2-methoxypyridin-4-yl)-1H-pyrazole-3-carbonyl)piperidine-4-carboxamide]",AC50,His6-TEV-PPARγ-(234-505),0.0775 µM
same,IC50,UM-UC-9 engineered cells,0.171 µM
"COc1cc(-c2cc(C(=O)N3CCC(C(=O)NCc4c[nH]c5ncccc45)CC3)n[nH]2)c(Cl)cn1 [Example 202, N-((1H-pyrrolo[2,3-b]pyridin-3-yl)methyl)-1-(5-(5-chloro-2-methoxypyridin-4-yl)-1H-pyrazole-3-carbonyl)piperidine-4-carboxamide]",AC50,His6-TEV-PPARγ-(234-505),0.136 µM
same,IC50,UM-UC-9 engineered cells,1.59 µM
"COc1cc(-c2cc(C(=O)N3CCC(C(=O)NCc4ccc5[nH]c(C)cc5c4)CC3)n[nH]2)c(Cl)cn1 [Example 203, 1-(5-(5-chloro-2-methoxypyridin-4-yl)-1H-pyrazole-3-carbonyl)-N-((2-methyl-1H-indol-5-yl)methyl)piperidine-4-carboxamide]",AC50,His6-TEV-PPARγ-(234-505),0.0774 µM
same,IC50,UM-UC-9 engineered cells,0.0964 µM
"COc1cc(-c2cc(C(=O)N3CCC(C(=O)NCc4ccc5[nH]nc(C)c5c4)CC3)n[nH]2)c(F)cn1 [Example 204, 1-[5-(5-fluoro-2-methoxypyridin-4-yl)-1H-pyrazole-3-carbonyl]-N-[(3-methyl-1H-indazol-5-yl)methyl]piperidine-4-carboxamide]",AC50,His6-TEV-PPARγ-(234-505),0.0202 µM
same,IC50,UM-UC-9 engineered cells,0.0833 µM
"COc1cc(-c2cc(C(=O)N3CCC(C(=O)Nc4cnn(C(C)C)c4)CC3)n[nH]2)c(Cl)cn1 [Example 205, 1-(5-(5-chloro-2-methoxypyridin-4-yl)-1H-pyrazole-3-carbonyl)-N-(1-isopropyl-1H-pyrazol-4-yl)piperidine-4-carboxamide]",AC50,His6-TEV-PPARγ-(234-505),0.912 µM
same,IC50,UM-UC-9 engineered cells,3.11 µM
"COc1cc(-c2cc(C(=O)N3CCC(C(=O)NCc4ccc5c(ccn5C)c4)CC3)n[nH]2)c(Cl)cn1 [Example 206, 1-(5-(5-chloro-2-methoxypyridin-4-yl)-1H-pyrazole-3-carbonyl)-N-((1-methyl-1H-indol-5-yl)methyl)piperidine-4-carboxamide]",AC50,His6-TEV-PPARγ-(234-505),0.0138 µM
same,IC50,UM-UC-9 engineered cells,0.0866 µM
"COc1cc(-c2cc(C(=O)N3CCC(C(=O)NC4COc5ccc(Cl)cc54)CC3)n[nH]2)c(Cl)cn1 (stereo not shown) [Example 208, N-(5-chloro-2,3-dihydrobenzofuran-3-yl)-1-(5-(5-chloro-2-methoxypyridin-4-yl)-1H-pyrazole-3-carbonyl)piperidine-4-carboxamide]",AC50,His6-TEV-PPARγ-(234-505),0.0347 µM
same,IC50,UM-UC-9 engineered cells,0.29 µM
"COc1cc(-c2cc(C(=O)N3CCC(C(=O)NCc4nccc(C(F)(F)F)n4)CC3)n[nH]2)c(Cl)cn1 [Example 209, 1-(5-(5-chloro-2-methoxypyridin-4-yl)-1H-pyrazole-3-carbonyl)-N-((4-(trifluoromethyl)pyrimidin-2-yl)methyl)piperidine-4-carboxamide]",AC50,His6-TEV-PPARγ-(234-505),0.319 µM
same,IC50,UM-UC-9 engineered cells,2.37 µM
